Legend:
Lanosterol synthase = target: T1, Lanosterol synthase (Homo sapiens, UniProt P48449); assay: Inhibitory activity against Oxidosqualene-lanosterol cyclase from human liver microsomes
T1 sequence (P48449 whole entry): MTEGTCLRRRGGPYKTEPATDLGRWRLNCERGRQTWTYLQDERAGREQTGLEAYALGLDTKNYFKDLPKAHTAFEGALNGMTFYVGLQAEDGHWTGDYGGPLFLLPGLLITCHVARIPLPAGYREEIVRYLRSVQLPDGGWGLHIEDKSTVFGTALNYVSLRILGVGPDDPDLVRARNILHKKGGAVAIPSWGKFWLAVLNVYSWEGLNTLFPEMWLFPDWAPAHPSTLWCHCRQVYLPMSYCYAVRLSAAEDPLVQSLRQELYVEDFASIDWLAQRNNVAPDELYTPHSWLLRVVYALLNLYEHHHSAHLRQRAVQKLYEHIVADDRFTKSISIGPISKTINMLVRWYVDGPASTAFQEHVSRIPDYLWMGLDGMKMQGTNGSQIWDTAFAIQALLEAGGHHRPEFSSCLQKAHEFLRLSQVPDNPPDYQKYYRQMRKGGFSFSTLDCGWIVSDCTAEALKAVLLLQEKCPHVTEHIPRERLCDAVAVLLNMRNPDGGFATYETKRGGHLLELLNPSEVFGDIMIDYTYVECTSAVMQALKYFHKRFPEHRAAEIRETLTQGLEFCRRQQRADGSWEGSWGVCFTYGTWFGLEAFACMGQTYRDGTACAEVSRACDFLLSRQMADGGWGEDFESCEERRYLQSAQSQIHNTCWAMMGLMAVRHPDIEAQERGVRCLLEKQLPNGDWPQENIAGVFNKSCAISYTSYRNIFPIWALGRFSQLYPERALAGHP

Squalene--hopene cyclase = target: T2, Squalene--hopene cyclase (Alicyclobacillus acidocaldarius subsp. acidocaldarius (strain ATCC27009 / DSM 446 / 104-1A) (Bacillus acidocaldarius), UniProt P33247); assay: Inhibitory activity against squalene hopene cyclase from Alicyclobacillus acidocaldarius
T2 sequence (P33247 whole entry): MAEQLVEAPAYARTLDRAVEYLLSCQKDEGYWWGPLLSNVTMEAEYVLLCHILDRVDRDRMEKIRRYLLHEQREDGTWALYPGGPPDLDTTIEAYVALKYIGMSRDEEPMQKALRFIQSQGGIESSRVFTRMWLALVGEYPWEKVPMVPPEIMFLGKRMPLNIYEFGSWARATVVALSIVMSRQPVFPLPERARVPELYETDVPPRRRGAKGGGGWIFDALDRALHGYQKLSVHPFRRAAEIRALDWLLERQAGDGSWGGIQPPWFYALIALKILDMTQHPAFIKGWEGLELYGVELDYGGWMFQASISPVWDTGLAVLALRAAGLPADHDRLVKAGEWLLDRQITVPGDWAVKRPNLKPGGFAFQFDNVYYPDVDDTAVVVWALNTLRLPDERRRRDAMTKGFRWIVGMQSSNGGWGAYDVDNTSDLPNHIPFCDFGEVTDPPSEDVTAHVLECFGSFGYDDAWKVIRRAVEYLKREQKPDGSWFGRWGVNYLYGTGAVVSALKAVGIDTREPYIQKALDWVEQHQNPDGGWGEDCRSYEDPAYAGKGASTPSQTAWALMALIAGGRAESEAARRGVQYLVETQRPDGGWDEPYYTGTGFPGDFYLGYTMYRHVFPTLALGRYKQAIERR

SMILES	IC50 (Lanosterol synthase)	IC50 (Squalene--hopene cyclase)
C=CCN(C)CCCCCCOc1ccc(C(=O)c2ccc(Br)cc2)cc1	5.4 nM	96 nM
C=CCN(C)CCCCCCOc1ccc2c(-c3ccc(Br)cc3)n[nH]c2c1	39 nM	–
CN(C[C@H]1C[C@@H]1COc1ccc(C(=O)c2ccc(Br)cc2)c(F)c1)C1CC1	439 nM	50 nM
O=C(c1ccc(Cl)cc1)N1CCC(=Cc2ccc(C3=NCCO3)cc2)CC1	36 nM	2800 nM
C=CCN(C)CCCCCCOc1ccc2c(c1)CON=C2c1ccc(Br)cc1	4.1 nM	172 nM
C=CCN(C)C/C=C/COc1ccc2c(-c3ccc(Br)cc3)noc2c1	29 nM	49 nM
C=CCN(C)CCCCCCOc1ccc(-c2nsc3cc(Br)ccc23)cc1	1900 nM	–
C=CCN(C)C/C=C/COc1ccc2c(-c3ccc(Br)cc3)coc2c1	500 nM	–
CN(CCCCCCOC1CCN(C(=O)c2ccc(F)cc2)CC1)C1CC1	48 nM	760 nM
C=CCN(C[C@H]1C[C@@H]1COc1ccc(C(=O)c2ccc(Br)cc2)cc1)C1CC1	223 nM	–
CN(CCCCCCOc1ccc(C(=O)c2ccc(Br)cc2)c(F)c1)C1CC1	98 nM	38 nM
CN(C(=O)Oc1ccc(Cl)cc1)[C@H]1CC[C@H](c2ccc(C[N+]3([O-])CCCCC3)cc2)CC1	640 nM	123 nM
C=CCN(C)CCCCCCOc1ccc2c(-c3ccc(Br)cc3)coc2c1	610 nM	–
CN(C[C@H]1C[C@@H]1COc1ccc(C(=O)c2ccc(Br)cc2)cc1)C1CC1	22 nM	62 nM
C=CCN(C)C/C=C/COc1ccc(-c2nsc3cc(Br)ccc23)cc1	1860 nM	130 nM
C=CCN(C)CCCCCCOc1ccc2c(-c3ccc(Br)cc3)noc2c1	380 nM	75 nM
C=CCN(C)CCCCCCOc1ccc2c(-c3ccc(Br)cc3)nsc2c1	2.9 nM	–
C=CCN(C)CCCCCCOc1ccc2c(C)nn(C)c2c1	240 nM	332 nM
C=CCN(C)C/C=C/COc1ccc(C(=O)c2ccc(Br)cc2)cc1	3 nM	40 nM
CN(C(=O)Oc1ccc(Cl)cc1)[C@H]1CC[C@H](c2ccc(CN3CCCCC3)cc2)CC1	11.3 nM	–
C=CCN(C)CCCCCCOC1CCN(C(=O)c2ccc(F)cc2)CC1	71 nM	1200 nM
C=CCN(C)Cc1ccc(-c2ccc(C(=O)c3ccc(Br)cc3)cc2)cc1	16 nM	–
C=CCN(C)C/C=C/COc1ccc2c(-c3ccc(Br)cc3)csc2c1	13.5 nM	75 nM
C=CCN(C)CCCCCCOc1ccc2c(-c3ccc(Br)cc3)nn(C)c2c1	19.6 nM	–
C=CCN(C)CCCCCCOc1ccc2c(-c3ccc(Br)cc3)nccc2c1	3.5 nM	–
